Results taken from ChEMBL document CHEMBL5260801, “Structure Based Design of Non-Natural Peptidic Macrocyclic Mcl-1 Inhibitors” (ACS Med Chem Lett, 2017).

Experiments:
[1] = target: Induced myeloid leukemia cell differentiation protein Mcl-1/Bcl-2-like protein 11 (Homo sapiens, UniProt Q07820); assay: Inhibition of N-terminal GST-tagged human recombinant Mcl-1 expressed in Escherichia coli /human Bim measured for 60 mins by TR-FRET based LanthaScreen Eu-Kinase binding assay
BCL2/BCL2L11 = BCL2/BCL2L11 (Homo sapiens, UniProt P10415); assay: Inhibition of his-tagged human recombinant Bcl-2 expressed in Escherichia coli /human Bim measured for 60 mins by TR-FRET based LanthaScreen Eu-Kinase binding assay
[2] = target: T1, Induced myeloid leukemia cell differentiation protein Mcl-1 (Homo sapiens, UniProt Q07820); assay: Binding affinity to N-terminal his6-tagged human recombinant Mcl-1 expressed in Escherichia coli assessed as dissociation constant by SPR analysis
MV4-11 = assay: Induction of apoptosis in human MV4-11 cells assessed as increase in caspase 3/7 activity measured after 6 hrs by Caspase-Glo 3/7 reagent based microplate reader analysis; format: functional, cell-based; settings: MV4-11, 6 h
[3] = target: T1, Induced myeloid leukemia cell differentiation protein Mcl-1; assay: Binding affinity to N-terminal his6-tagged human recombinant Mcl-1 expressed in Escherichia coli assessed as binding constant (Kon) by SPR analysis
[4] = target: T1, Induced myeloid leukemia cell differentiation protein Mcl-1; assay: Binding affinity to N-terminal his6-tagged human recombinant Mcl-1 expressed in Escherichia coli assessed as binding constant (Koff) by SPR analysis
Bcl-xL/BAK = Bcl-xL/BAK (Homo sapiens, UniProt Q07817); assay: Inhibition of N-terminal GST-tagged Bcl-xL (1 to 209 residues) expressed in Escherichia coli /human Bak measured for 60 mins by TR-FRET based LanthaScreen Eu-Kinase binding assay
Sequence of Bcl-xL/BAK (Q07817 whole entry, the tested form may be a part): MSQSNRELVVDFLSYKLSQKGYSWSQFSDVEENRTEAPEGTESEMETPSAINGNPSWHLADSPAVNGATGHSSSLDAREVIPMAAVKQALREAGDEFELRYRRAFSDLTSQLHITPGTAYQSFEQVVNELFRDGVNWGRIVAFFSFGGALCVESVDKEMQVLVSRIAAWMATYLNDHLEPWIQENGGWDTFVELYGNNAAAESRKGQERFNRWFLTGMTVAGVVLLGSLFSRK
Sequence of Bcl-xL/BAK (Q16611 whole entry, further chain, the tested form may be a part): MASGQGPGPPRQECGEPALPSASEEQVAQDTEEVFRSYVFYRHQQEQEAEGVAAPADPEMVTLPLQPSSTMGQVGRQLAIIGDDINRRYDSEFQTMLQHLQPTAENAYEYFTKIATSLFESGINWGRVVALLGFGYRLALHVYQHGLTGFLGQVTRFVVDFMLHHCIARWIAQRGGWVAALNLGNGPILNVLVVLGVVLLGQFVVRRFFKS

T1 sequence (Q07820 whole entry): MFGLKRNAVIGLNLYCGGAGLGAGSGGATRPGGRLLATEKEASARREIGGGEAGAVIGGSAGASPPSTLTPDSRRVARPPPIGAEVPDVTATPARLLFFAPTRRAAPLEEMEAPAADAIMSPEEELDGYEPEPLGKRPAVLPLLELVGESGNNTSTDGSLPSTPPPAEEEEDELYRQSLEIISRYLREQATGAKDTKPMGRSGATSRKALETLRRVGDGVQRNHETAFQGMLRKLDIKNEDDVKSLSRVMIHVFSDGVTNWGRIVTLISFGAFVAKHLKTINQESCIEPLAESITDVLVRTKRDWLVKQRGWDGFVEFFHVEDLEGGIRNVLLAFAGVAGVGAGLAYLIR
Sequence of Induced myeloid leukemia cell differentiation protein Mcl-1/Bcl-2-like protein 11 (Q07820 whole entry): as above
Sequence of Induced myeloid leukemia cell differentiation protein Mcl-1/Bcl-2-like protein 11 (O43521 whole entry, further chain): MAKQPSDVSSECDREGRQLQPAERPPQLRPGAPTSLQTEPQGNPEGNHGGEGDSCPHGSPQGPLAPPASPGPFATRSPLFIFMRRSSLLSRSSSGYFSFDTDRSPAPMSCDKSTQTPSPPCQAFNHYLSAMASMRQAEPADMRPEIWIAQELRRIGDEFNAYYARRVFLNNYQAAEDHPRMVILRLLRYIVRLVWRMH
Sequence of BCL2/BCL2L11 (P10415 whole entry): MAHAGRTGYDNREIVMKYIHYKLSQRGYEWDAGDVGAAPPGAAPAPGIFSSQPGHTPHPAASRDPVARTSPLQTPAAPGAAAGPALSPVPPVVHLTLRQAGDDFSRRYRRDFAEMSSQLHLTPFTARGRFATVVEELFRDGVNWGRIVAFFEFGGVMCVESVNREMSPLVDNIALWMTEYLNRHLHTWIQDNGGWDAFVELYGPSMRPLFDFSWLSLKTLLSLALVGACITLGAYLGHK
Sequence of BCL2/BCL2L11 (O43521 whole entry, further chain): as the sequence (O43521 whole entry, further chain) above

Compound | IC50 [1] | IC50 (BCL2/BCL2L11) | Kd [2] | EC50 (MV4-11) | K [3] | K [4] | IC50 (Bcl-xL/BAK)
CN1CCCN[C@@H](Cc2ccc(S(C)(=O)=O)cc2)CC(=O)N[C@H]2CCc3ccccc3N(CC(=O)N[C@H](Cc3ccc(Cl)c(/C=C/c4ccccc4)c3)CC1=O)C2=O | 375 nM | > 1000 nM | 1200 nM |  |  |  | 
CN1CCCN[C@@H](Cc2ccc(S(C)(=O)=O)cc2)CC(=O)N[C@H]2CCc3ccccc3N(CC(=O)N[C@H](Cc3ccc(Cl)c(Cl)c3)CC1=O)C2=O | 116 nM | 1000 nM | 100 nM |  |  |  | 
CN1CCCN[C@@H](Cc2ccc(S(N)(=O)=O)cc2)CC(=O)N[C@H]2CCc3ccccc3N(CC(=O)N[C@H](Cc3ccc(Cl)c(Cl)c3)CC1=O)C2=O | 558 nM | 1000 nM | 720 nM |  |  |  | 
CNC(=O)C[C@@H](Cc1ccc(Cl)c(-c2ccc(Cl)c(C)c2)c1)NC(=O)CN1C(=O)[C@@H](NC(=O)C[C@@H](N)Cc2ccc(Cl)cc2)CCc2ccccc21 | 1930 nM | > 1000 nM |  |  |  |  | 
C[C@H]1CCN(C)C(=O)C[C@@H](Cc2ccc(Cl)c(Cl)c2)NC(=O)CN2C(=O)[C@H](CCc3ccccc32)NC(=O)C[C@H](Cc2ccc(Cl)cc2)N1 | 48 nM | 1000 nM | 120 nM |  |  |  | 
CN1CCCN[C@@H](Cc2ccc(S(C)(=O)=O)cc2)CC(=O)N[C@H]2CCc3ccccc3N(CC(=O)N[C@H](Cc3ccc(Cl)c(CCc4ccccc4)c3)CC1=O)C2=O | < 3 nM | 5500 nM | 20 nM | 3780 nM | 33 10^5/M.s | 0.066 s⁻¹ | > 99000 nM
CNC(=O)C[C@@H](Cc1ccc(Cl)c(CCc2ccccc2)c1)NC(=O)CN1C(=O)[C@@H](NC(=O)C[C@@H](N)Cc2ccc(Cl)cc2)CCc2ccccc21 | 193 nM | 1000 nM |  |  |  |  | 
C[C@@H]1CCN(C)C(=O)C[C@@H](Cc2ccc(Cl)c(Cl)c2)NC(=O)CN2C(=O)[C@H](CCc3ccccc32)NC(=O)C[C@H](Cc2ccc(Cl)cc2)N1 | 739 nM | 1000 nM | 3540 nM |  |  |  | 
CN1CCCN[C@@H](Cc2ccc(Cl)cc2)CC(=O)N[C@H]2CCc3ccccc3N(CC(=O)N[C@H](Cc3ccc(Cl)c(-c4cc5ccccc5o4)c3)CC1=O)C2=O | 1050 nM | > 1000 nM | 3600 nM |  | 1.6 10^5/M.s | 0.314 s⁻¹ | 
CN1CCCN[C@@H](Cc2ccc(S(C)(=N)=O)cc2)CC(=O)N[C@H]2CCc3ccccc3N(CC(=O)N[C@H](Cc3ccc(Cl)c(Cl)c3)CC1=O)C2=O (stereo not given in full) | 510 nM | 1000 nM | 420 nM |  | 10.2 10^5/M.s | 0.476 s⁻¹ | 
CN1CCCN[C@@H](Cc2ccc([S+](C)[O-])cc2)CC(=O)N[C@H]2CCc3ccccc3N(CC(=O)N[C@H](Cc3ccc(Cl)c(Cl)c3)CC1=O)C2=O (stereo not given in full) | 742 nM | 1000 nM | 770 nM |  |  |  | 
CN1CCCN[C@@H](Cc2ccc(Cl)cc2)CC(=O)N[C@H]2CCc3ccccc3N(CC(=O)N[C@H](Cc3ccc(Cl)c(/C=C/c4ccccc4)c3)CC1=O)C2=O | 2230 nM | 1000 nM | > 10000 nM |  |  |  | 
CCN[C@H](CC(=O)N[C@H]1CCc2ccccc2N(CC(=O)N[C@@H](CC(=O)NC)Cc2ccc(Cl)c(Cl)c2)C1=O)Cc1ccc(Cl)cc1 | 2100 nM | 1000 nM |  |  |  |  | 
CN1CCCN[C@@H](Cc2ccc(Cl)cc2)CC(=O)N[C@H]2CCc3ccccc3N(CC(=O)N[C@H](Cc3ccc(Cl)c(Cl)c3)CC1=O)C2=O | 155 nM | 1000 nM | 370 nM |  | 7.9 10^5/M.s | 0.212 s⁻¹ | 
CNC(=O)C[C@@H](Cc1ccc(Cl)c(Cc2ccccc2)c1)NC(=O)CN1C(=O)[C@@H](NC(=O)C[C@@H](N)Cc2ccc(Cl)cc2)CCc2ccccc21 | 9210 nM | 1000 nM |  |  |  |  | 
CNC(=O)C[C@@H](Cc1ccc(Cl)c(Cl)c1)NC(=O)CN1C(=O)[C@@H](NC(=O)C[C@@H](N)Cc2ccc(Br)cc2)CCc2ccccc21 | 1490 nM | 1000 nM |  |  |  |  | 
CNC(=O)C[C@@H](Cc1cccc(Cl)c1)NC(=O)CN1C(=O)[C@@H](NC(=O)C[C@@H](N)Cc2ccc(Cl)cc2)CCc2ccccc21 | 57300 nM | > 1000 nM |  |  |  |  | 
CN1CCCN[C@@H](Cc2ccc(S(C)(=O)=O)cc2)CC(=O)N[C@H]2CCc3ccccc3N(CC(=O)N[C@H](Cc3ccc(Cl)c(C#Cc4ccccc4)c3)CC1=O)C2=O | 47 nM | 1000 nM |  |  |  |  | 
CN1CCCN[C@@H](Cc2ccc(S(C)(=O)=O)cc2)CC(=O)N[C@H]2CCc3ccccc3N(CC(=O)N[C@H](Cc3ccc(Cl)c(-c4ccc5ccccc5c4)c3)CC1=O)C2=O | 112 nM | 1000 nM | 290 nM |  | 6.6 10^5/M.s | 0.213 s⁻¹ | 
CNC(=O)C[C@@H](Cc1ccc(Cl)cc1)NC(=O)CN1C(=O)[C@@H](NC(=O)C[C@@H](N)Cc2ccc(Cl)cc2)CCc2ccccc21 | 12500 nM | 1000 nM |  |  |  |  | 
CN1CCCCCN[C@@H](Cc2ccc(Cl)cc2)CC(=O)N[C@H]2CCc3ccccc3N(CC(=O)N[C@H](Cc3ccc(Cl)c(Cl)c3)CC1=O)C2=O | 277 nM | 1000 nM | 530 nM |  |  |  | 
O=C1C[C@@H](Cc2ccc(Cl)c(Cl)c2)NC(=O)CN2C(=O)[C@H](CCc3ccccc32)NC(=O)C[C@H](Cc2ccc(Cl)cc2)NCCCN1 | 5210 nM | > 1000 nM | 4480 nM |  | 0.53 10^5/M.s | 0.158 s⁻¹ | 
CNC(=O)C[C@@H](Cc1ccc(Cl)c(Cl)c1)NC(=O)CN1C(=O)[C@@H](NC(=O)C[C@@H](N)Cc2ccc(Cl)cc2)CCc2ccccc21 | 1990 nM | 1000 nM |  |  |  |  | 
CN1CCCN[C@@H](Cc2ccc(S(C)(=O)=O)cc2)CC(=O)N[C@H]2CCc3ccccc3N(CC(=O)N[C@H](Cc3ccc(Cl)c(-c4cc5ccccc5o4)c3)CC1=O)C2=O | 116 nM | 1000 nM | 470 nM |  | 9.5 10^5/M.s | 0.336 s⁻¹ | 
CN(C)C(=O)C[C@@H](Cc1ccc(Cl)c(Cl)c1)NC(=O)CN1C(=O)[C@@H](NC(=O)C[C@@H](N)Cc2ccc(Cl)cc2)CCc2ccccc21 | 2250 nM | 1000 nM |  |  |  |  | 
CN1CCCCN[C@@H](Cc2ccc(Cl)cc2)CC(=O)N[C@H]2CCc3ccccc3N(CC(=O)N[C@H](Cc3ccc(Cl)c(Cl)c3)CC1=O)C2=O | 122 nM | 1000 nM | 290 nM |  | 2.9 10^5/M.s | 0.082 s⁻¹ | 
CNC(=O)C[C@@H](Cc1ccc(Cl)cc1)NC(=O)CN1C(=O)[C@@H](NC(=O)C[C@@H](N)Cc2ccccc2)CCc2ccccc21 | 19500 nM | 1000 nM |  |  |  |  | 
CNC(=O)C[C@@H](Cc1ccc(Cl)c(CCc2ccccc2)c1)NC(=O)CN1C(=O)[C@@H](NC(=O)C[C@@H](N)Cc2ccc(S(C)(=O)=O)cc2)CCc2ccccc21 | 133 nM | 1000 nM |  |  |  |  | 
CN1CCCN[C@@H](Cc2ccc(Cl)cc2)CC(=O)N[C@H]2CCc3ccccc3N(CC(=O)N[C@H](Cc3ccc(Cl)c(CCc4ccccc4)c3)CC1=O)C2=O | 45 nM | 1000 nM | 340 nM |  | 3.7 10^5/M.s | 0.073 s⁻¹ | 
